Here are results for twelve compounds from patent US10933063B2 (priority 2017, dated 2021).

The target of this assay is BTK (Homo sapiens (Human), UniProt Q06187). Kind of assay: biochemical.
Chain of BTK (Q06187 whole entry, looked up, species assumed): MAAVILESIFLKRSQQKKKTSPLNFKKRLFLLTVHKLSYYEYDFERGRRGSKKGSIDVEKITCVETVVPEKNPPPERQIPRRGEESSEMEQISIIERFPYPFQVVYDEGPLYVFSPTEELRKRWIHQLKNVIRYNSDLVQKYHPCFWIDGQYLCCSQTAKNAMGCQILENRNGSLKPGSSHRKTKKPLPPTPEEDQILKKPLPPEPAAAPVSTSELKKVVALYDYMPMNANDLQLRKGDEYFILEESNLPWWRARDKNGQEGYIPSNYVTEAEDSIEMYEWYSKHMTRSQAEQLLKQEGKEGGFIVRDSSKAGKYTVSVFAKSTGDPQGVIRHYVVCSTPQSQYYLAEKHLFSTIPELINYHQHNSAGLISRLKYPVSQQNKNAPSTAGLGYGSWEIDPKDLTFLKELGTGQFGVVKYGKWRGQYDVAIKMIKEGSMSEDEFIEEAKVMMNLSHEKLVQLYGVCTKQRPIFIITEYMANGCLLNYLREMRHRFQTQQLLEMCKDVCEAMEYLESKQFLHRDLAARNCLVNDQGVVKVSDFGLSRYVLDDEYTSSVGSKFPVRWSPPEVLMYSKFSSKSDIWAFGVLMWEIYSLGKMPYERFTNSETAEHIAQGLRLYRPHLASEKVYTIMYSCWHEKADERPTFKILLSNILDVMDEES
Turning to `CC#CC(=O)N1CCCC[C@H]1c1nc(-c2ccc(Oc3cccc(OC)c3)cc2)c2cnccn12` [Example 59, (S)-1-(2-(1-(4-(3-methoxyphenoxy)phenyl)imidazo[1,5-a]pyrazin-3-yl)piperidin-1-yl)but-2-yn-1-one], the IC50 lay within 100 to 1000 nM.
Regarding `CC#CC(=O)N1CCCC[C@H]1c1nc(-c2ccc(Oc3cccc(F)c3F)cc2)c2c(C)nccn12` [Example 60, (S)-1-(2-(1-(4-(2,3-difluorophenoxy)phenyl)-8-methylimidazo[1,5-a]pyrazin-3-yl)piperidin-1-yl)but-2-yn-1-one], the IC50 was in the range of 10 to 100 nM.
Regarding `CC#CC(=O)N1CCC[C@H]1c1nc(-c2ccc(Oc3cccc(OC)c3F)cc2)c2cncc(C)n12` [Example 63, (S)-1-(2-(1-(4-(2-fluoro-3-methoxyphenoxy)phenyl)-5-methylimidazo[1,5-a]pyrazin-3-yl)pyrrolidin-1-yl)but-2-yn-1-one], the IC50 lay in the range of 100 to 1000 nM.
For `CC#CC(=O)N1CCC[C@H]1c1nc(-c2ccc(Oc3cccc(OC)c3F)cc2)c2c(C)ncc(C)n12` [Example 65, (S)-1-(2-(1-(4-(2-fluoro-3-methoxyphenoxy)phenyl)-5,8-dimethylimidazo[1,5-a]pyrazin-3-yl)pyrrolidin-1-yl)but-2-yn-1-one], the IC50 lay within 10 to 100 nM.
The compound `C=CC(=O)N1CCCC[C@H]1c1nc(-c2ccc(Oc3cccc(OC)c3F)cc2)c2c(C(=O)OC)nccn12` [Example 66, methyl (S)-3-(1-acryloylpiperidin-2-yl)-1-(4-(2-fluoro-3-methoxyphenoxy)phenyl)imidazo[1,5-a]pyrazine-8-carboxylate] had an IC50 of 1000 to 10000 nM.
Take `CC#CC(=O)N1CCCC[C@H]1c1nc(-c2ccc(Oc3cccc(OC)c3F)cc2)c2c(C(=O)OC)nccn12` [Example 67, methyl (S)-3-(1-(but-2-ynoyl)piperidin-2-yl)-1-(4-(2-fluoro-3-methoxyphenoxy)phenyl)imidazo[1,5-a]pyrazine-8-carboxylate]: the IC50 lay within 1000 to 10000 nM.
The figure for `C=CC(=O)N1CCC[C@@H](c2nc(-c3ccc(Oc4cccc(OC)c4F)cc3)c3cncc(C)n23)C1` [Example 70, (R)-1-(3-(1-(4-(2-fluoro-3-methoxyphenoxy)phenyl)-5-methylimidazo[1,5-a]pyrazin-3-yl)piperidin-1-yl)prop-2-en-1-one] is 10 to 100 nM; for `CC#CC(=O)N1CCC[C@@H](c2nc(-c3ccc(Oc4cccc(OC)c4F)cc3)c3cncc(C)n23)C1` [Example 71, (R)-1-(3-(1-(4-(2-fluoro-3-methoxyphenoxy)phenyl)-5-methylimidazo[1,5-a]pyrazin-3-yl)piperidin-1-yl)but-2-yn-1-one] it is 100 to 1000 nM; for `C=CC(=O)N1CC[C@@H](c2nc(-c3ccc(Oc4cccc(OC)c4F)cc3)c3cncc(C)n23)C1` [Example 72, (R)-1-(3-(1-(4-(2-fluoro-3-methoxyphenoxy)phenyl)-5-methylimidazo[1,5-a]pyrazin-3-yl)pyrrolidin-1-yl)prop-2-en-1-one] it is 10 to 100 nM.
For the compound `CC#CC(=O)N1CC[C@@H](c2nc(-c3ccc(Oc4cccc(OC)c4F)cc3)c3cncc(C)n23)C1` [Example 73, (R)-1-(3-(1-(4-(2-fluoro-3-methoxyphenoxy)phenyl)-5-methylimidazo[1,5-a]pyrazin-3-yl)pyrrolidin-1-yl)but-2-yn-1-one], the IC50 was 10 to 100 nM.
In turn, `CC#CC(=O)N1CC[C@@H](c2nc(-c3ccc(Oc4cccc(OC)c4F)cc3)c3c(C)ncc(C)n23)C1` [Example 75, (R)-1-(3-(1-(4-(2-fluoro-3-methoxyphenoxy)phenyl)-5,8-dimethylimidazo[1,5-a]pyrazin-3-yl)pyrrolidin-1-yl)but-2-yn-1-one] yielded an IC50 of 10 to 100 nM.
As for `C=CC(=O)N1CCC[C@@H](c2nc(-c3ccc(Oc4cccc(OC)c4F)cc3)c3c(C)ncc(C)n23)C1` [Example 76, (R)-1-(3-(1-(4-(2-fluoro-3-methoxyphenoxy)phenyl)-5,8-dimethylimidazo[1,5-a]pyrazin-3-yl)piperidin-1-yl)prop-2-en-1-one], the figure is 10 to 100 nM.
